{"source": "patent US20090054629A1", "about": "“Inhibitors of Transthyretin Amyloid Fibril Formation” (THE SCRIPPS RESEARCH INSTITUTE, priority 2005, published 2009)", "target": "T1, WT-TTR (Homo sapiens, UniProt P02766)", "T1 construct": "TTR is a 127-residue β-sheet rich homotetramer; made in house; host or cells: Escherichia coli", "assay": "Acid-mediated (pH 4.4) TTR fibril formation assay (turbidity)", "format": "biochemical", "conditions": "inhibitor 7.2 μM, tetrameric TTR 3.6 μM, pH 4.4, 72 h", "experimental": "The inhibitory activity of the oxime ethers (7.2 μM) against acid-mediated (pH 4.4) TTR (3.6 μM) amyloid formation is summarized in FIG. 10.\nWild type TTR was purified from an Escherichia coli expression system as described previously (Lashuel, H. A.; et al. Biochemistry 1999, 38, 13560-13573). Disposable cuvettes (Fisher #14 385 938) were charged with 495 μL of a 0.4 mg/mL stock of TTR (7.2 μM) in 10 mM phosphate (pH 7.2), 100 mM KCl, 1 mM EDTA, and 0.2% NaN3. 5 μL of the inhibitors in DMSO (1.44 mM) were added to the TTR solutions and the samples were incubated for 30 min at 37° C. The pH was then lowered to 4.4 by addition of 0.5 mL of 200 mM acetate buffer (pH 4.2, 100 mM KCI, 1 mM EDTA, 0.2% NaN3) to each cuvette. The cuvettes were left undisturbed for 72 h at 37° C., then vortexed to evenly distribute any precipitate throughout the sample. The turbidity was measured on a Hewlett Packard model 8453 UV-Vis Spectrophotometer at 350 and 400, or 500 nm. All samples were performed in duplicate or triplicate and results reported are representative examples of at least three analyses.\nFIG. 4 is a table showing the activities of the 96 bisarylhydrazones that were tested for inhibition of fibril formation. Bisarylhydrazone activity (7.2 μM) against WT-TTR (3.6 μM) amyloid fibril formation at pH 4.4 (72 h). […]", "data": [{"smiles": "Oc1cc(Cl)cc(Cl)c1", "note": "[3,5-Dichlorophenol]", "values": [{"measurement": "inhibition at 7.2 µM", "value": 86, "unit": "%"}]}]}
